Measurements from patent US20130216533A1, “BIOLOGICAL MARKERS FOR IDENTIFYING PATIENTS FOR TREATMENT WITH VEGF ANTAGONISTS” (Genentech, Inc., priority 2012, published 2013).

Tests used:
[1] = test system: metastatic colorectal carcinoma (CRC); assay: NO16966 first-line metastatic CRC trial, PFS and OS stratified by 22-gene VDV signature; format: in vivo, human
Procedure: Sections from archival tumor samples from patients enrolled in the XELOX treatment arms of NO 16966 were evaluated by a pathologist and high tumor content area macro-dissected for subsequent RNA isolation using the FFPE RNA isolation kit (Roche; 7-10 sections per patient). RNA levels were assessed after cDNA synthesis following standard techniques, with the qPCR protocol on the Fluidigm Biomark platform according to the manufacturer's protocol.
Quantitative histological data from various animal experiments were plotted using Microsoft Excel software. Student's t test was applied to compare data sets of interest and differences with p values <0.05 were considered significant. 103 biopsies out of 1017 patients from the XELOX (capecitabine and oxaliplatin)-containing arm in the NO16966 trial were analyzed for the gene expression of VDV genes. qRT-PCR values were normalized by the housekeeping genes and relative to a universal reference sample to derive delta-delta Ct values. Subsequently, the delta-delta Ct value of each of the 22 VDV genes was mean centered and variance scaled to a Z-score.
For each sample i for which all of the VDV genes were analyzed, a VDV signature score (VDVi) was calculated. The VDVi represents a weighted average of z-scores across the analyzed VDV genes and is given by the algorithm:
wherein Zg,i is the standardized z-score of the qRT-PCR value for gene g of sample i and n, in this instance, is 22. The VDVi value provides quantitative information regarding the extent to which the expression of a particular set of genes is collectively overexpressed or underexpressed relative to a centered mean.
To compare the clinical outcomes (PFS and OS) between marker and/or treatment subgroups, log-rank tests and Cox regression were used, with median time calculated by the Kaplan-Meier analysis. All statistical tests were two-sided.
To test if VDV gene expression could correlate with clinical outcomes, we analyzed VDV gene expression levels in available pre-treatment archival tumor tissue from 103 patients (biomarker evaluable subpopulation) that were enrolled in the XELOX-containing arms. Due to the limited quality and amount of RNA from these clinical samples, gene expression was analyzed in a previously designed and validated “angiogenesis” Fluidigm qRT-PCR chip (FIG. 8B) that included 4 different housekeeping genes (for gene expression normalization), VEGF (as a control), and 22 representative proximal and distal VDV genes comprising: (i) pan-vascular markers such as CD31, CD34, and VE-CADH as indicators of MVD; (ii) key VEGF pathway components and proxVDV genes, including VEGFR-1, VEGFR-2, VEGFR-3, EPHRINB2, NRPs, ESM1, NID2, COL4a2, and LAMA4a; and (iii) additional VDV genes that are components of endothelial signaling pathways and potential modulators of VDV biology, including DLL-4, NOTCH1, ALK1, and EGFL7 (see FIG. 9A for validation of this compacted 22 VDV gene signature).
In these patients, the addition of bevacizumab to chemotherapy provided a statistically significant PFS (HR, 0.59; 95% CI, 0.37 to 0.93; p=0.024) and OS benefit (HR, 0.45; 95% CI, 0.23 to 0.85; p=0.015). […] We then tested the correlation between clinical outcomes and “high” or “low” pre-treatment gene expression. […] In contrast, in “VDV high” patients (FIG. 8D, solid lines), the addition of bevacizumab to chemotherapy vs chemotherapy alone provided a marked and significant PFS(HR, 0.36; 95% CI, 0.17 to 0.77; p=0.0079) and OS (HR, 0.31; 95% CI, 0.11 to 0.93; p=0.036) benefit. […] Thus, in this relatively small 103-patient sample set, the higher expression of a collective VDV gene subset correlates specifically with the improved clinical outcome provided by bevacizumab addition to chemotherapy, and has a predictive effect with respect to PFS.

[2] = test system: VDV signature genes in Human Inflammatory Breast Cancer; details: 19 inflammatory breast cancer patients; one dose as single agent; 21 days post-treatment; published micro-array data; cited from earlier work
[3] = test system: metastatic colorectal carcinoma (CRC); details: cited from earlier work
[4] = addition to oxaliplatin-based chemotherapy, Saltz et al. 2008

bevacizumab: recombinant humanized anti-VEGF monoclonal antibody generated according to Presta et al. (1997)
PFS HR ([1]; 103 biomarker evaluable patients, addition to chemotherapy (XELOX) vs chemotherapy, 95% CI 0.37 to 0.93, p=0.024): 0.59
OS HR ([1]; 103 biomarker evaluable patients, addition to chemotherapy (XELOX), 95% CI 0.23 to 0.85, p=0.015): 0.45
OS HR ([1]; "VDV high" patients, 95% CI 0.11 to 0.93, p=0.036): 0.31
PFS HR ([1]; "VDV high" patients, addition to chemotherapy vs chemotherapy alone, 95% CI 0.17 to 0.77, p=0.0079): 0.36
OS HR ([1]; "VDV low" patients, 95% CI 0.25 to 1.33, p=0.2): 0.58
PFS HR ([1]; "VDV low" patients, combination with chemotherapy vs chemotherapy alone, 95% CI 0.47 to 1.62, p=0.67): 0.88
VDV transcripts post-treatment vs pre-treatment biopsies [2]: clear down regulation of VDV transcripts
OS differences (secondary endpoint), whole NO16966 study [3, 4]: did not reach statistical significance
PFS (primary endpoint), whole NO16966 study [3, 4]: significantly improved
PFS and OS in metastatic CRC ([3]; in combination with chemotherapy, Hurwitz et al. 2004): increase progression free survival (PFS) and overall survival (OS)
